The text below walks through data of ChEMBL document CHEMBL4507327 (2021).

The target of series [1] is Alpha-2B adrenergic receptor (Homo sapiens) (UniProt P18089). To be noted: Compound concentration 10.0 uM.
Series [2] concerns the target Alpha-1D adrenergic receptor (Homo sapiens) (UniProt P25100). Nature of the series: Inhibition of Adrenergic alpha1D at 10 µM in the Eurofins-Panlabs radioligand binding assay (Eurofins_assay_203400). To be noted: Compound concentration 10.0 uM.
The species entered for a further series is Rattus norvegicus. To be noted: Compound concentration 10.0 uM.
Series [3] concerns the target T1, Muscarinic acetylcholine receptor M1 (Homo sapiens) (UniProt P11229).
T1 sequence (whole entry): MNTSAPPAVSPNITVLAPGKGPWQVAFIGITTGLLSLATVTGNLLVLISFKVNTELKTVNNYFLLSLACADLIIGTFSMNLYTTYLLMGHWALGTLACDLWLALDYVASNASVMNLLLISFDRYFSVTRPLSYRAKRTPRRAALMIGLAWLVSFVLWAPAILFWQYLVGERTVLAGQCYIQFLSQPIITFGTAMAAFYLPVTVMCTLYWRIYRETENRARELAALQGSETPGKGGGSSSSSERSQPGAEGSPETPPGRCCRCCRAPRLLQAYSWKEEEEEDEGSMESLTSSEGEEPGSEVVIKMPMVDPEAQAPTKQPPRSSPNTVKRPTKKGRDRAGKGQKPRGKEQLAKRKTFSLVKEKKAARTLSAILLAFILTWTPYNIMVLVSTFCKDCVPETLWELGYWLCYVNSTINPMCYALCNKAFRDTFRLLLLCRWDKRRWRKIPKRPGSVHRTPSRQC
Particulars: Compound concentration 10.0 uM; call rule not given here.

Series [4] concerns the target Prostaglandin E2 receptor EP4 subtype (Homo sapiens) (UniProt P35408). Put plainly: Inhibition of Prostanoid EP4 at 10 µM in the Eurofins-Panlabs radioligand binding assay (Eurofins_assay_268420). Details: ligand concentration 1 nM. To be noted: Compound concentration 10.0 uM.
In series [5] the target is GABA-A receptor; anion channel (Rattus norvegicus) (UniProt O09028+P15431+P18506+P18508+P19969+P20236+P23574+P23576+P28471+P28473+P30191+P62813+P63079+P63138+Q91ZM7+Q9ES14). To be noted: Compound concentration 10.0 uM.
The target of series [6] is 5-hydroxytryptamine receptor 6 (Homo sapiens) (UniProt P50406). To be noted: Compound concentration 10.0 uM.
For series [7], the target named is Beta-1 adrenergic receptor (Homo sapiens) (UniProt P08588). To be noted: Compound concentration 10.0 uM.
Series [8] addresses STE20/SPS1-related proline-alanine-rich protein kinase (Homo sapiens, UniProt Q9UEW8). Nature of the series: STLK3(ST39LGRJ) Takeda global kinase panel.
For series [9], the target named is Alpha-2A adrenergic receptor (Homo sapiens) (UniProt P08913). Particulars: Compound concentration 10.0 uM.
For series [10], the target named is 5-hydroxytryptamine receptor 7 (Homo sapiens) (UniProt P34969). To be noted: Compound concentration 10.0 uM.
Chain of 5-hydroxytryptamine receptor 7 (Homo sapiens) (P34969 whole entry): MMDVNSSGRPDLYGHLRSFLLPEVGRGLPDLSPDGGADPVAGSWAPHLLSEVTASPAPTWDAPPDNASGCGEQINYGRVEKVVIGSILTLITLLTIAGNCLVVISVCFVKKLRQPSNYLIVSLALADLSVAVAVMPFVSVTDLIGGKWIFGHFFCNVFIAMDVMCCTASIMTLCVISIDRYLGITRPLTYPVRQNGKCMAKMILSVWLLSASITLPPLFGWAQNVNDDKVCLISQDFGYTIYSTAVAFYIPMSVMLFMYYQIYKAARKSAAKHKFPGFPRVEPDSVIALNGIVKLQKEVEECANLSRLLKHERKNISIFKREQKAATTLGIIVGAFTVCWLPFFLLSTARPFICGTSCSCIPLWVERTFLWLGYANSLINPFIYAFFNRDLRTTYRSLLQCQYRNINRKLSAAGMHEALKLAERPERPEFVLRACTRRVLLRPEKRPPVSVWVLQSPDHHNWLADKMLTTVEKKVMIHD
In series [11] the target is Sigma non-opioid intracellular receptor 1 (Homo sapiens) (UniProt Q99720). Particulars: Compound concentration 10.0 uM.
In series [12] the target is T2, Muscarinic acetylcholine receptor M2 (Homo sapiens) (UniProt P08172).
T2 sequence (whole entry): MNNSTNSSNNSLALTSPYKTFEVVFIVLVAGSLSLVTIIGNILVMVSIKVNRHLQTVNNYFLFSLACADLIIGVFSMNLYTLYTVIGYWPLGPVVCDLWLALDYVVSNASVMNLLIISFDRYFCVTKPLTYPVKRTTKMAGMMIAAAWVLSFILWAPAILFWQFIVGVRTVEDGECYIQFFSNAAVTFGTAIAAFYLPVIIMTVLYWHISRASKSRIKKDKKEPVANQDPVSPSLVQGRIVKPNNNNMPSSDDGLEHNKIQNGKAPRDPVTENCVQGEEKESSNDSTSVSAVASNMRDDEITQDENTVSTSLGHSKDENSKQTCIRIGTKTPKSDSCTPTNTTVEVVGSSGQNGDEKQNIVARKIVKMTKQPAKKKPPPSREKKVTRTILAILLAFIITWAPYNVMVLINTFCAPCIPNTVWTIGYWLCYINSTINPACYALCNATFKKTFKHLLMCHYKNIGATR
To be noted: Compound concentration 10.0 uM.

Series [13] has as its target Histamine H4 receptor (Homo sapiens) (UniProt Q9H3N8). Particulars: Compound concentration 10.0 uM.
For series [14], the target named is Mitogen-activated protein kinase 4 (Homo sapiens, UniProt P31152). Nature of the series: ERK4(MAP4LGY1) Takeda global kinase panel.
Series [15] concerns the target Leucine-rich repeat serine/threonine-protein kinase 2 (Homo sapiens, UniProt Q5S007). Put plainly: LRRK2(LRR2PGF1) Takeda global kinase panel.
Series [16] deals with MAP kinase-activated protein kinase 5 (Homo sapiens, UniProt Q8IW41). Nature of the series: MAPKAPK5(MPK5LGN1) Takeda global kinase panel.
Chain of MAP kinase-activated protein kinase 5 (Q8IW41 whole entry): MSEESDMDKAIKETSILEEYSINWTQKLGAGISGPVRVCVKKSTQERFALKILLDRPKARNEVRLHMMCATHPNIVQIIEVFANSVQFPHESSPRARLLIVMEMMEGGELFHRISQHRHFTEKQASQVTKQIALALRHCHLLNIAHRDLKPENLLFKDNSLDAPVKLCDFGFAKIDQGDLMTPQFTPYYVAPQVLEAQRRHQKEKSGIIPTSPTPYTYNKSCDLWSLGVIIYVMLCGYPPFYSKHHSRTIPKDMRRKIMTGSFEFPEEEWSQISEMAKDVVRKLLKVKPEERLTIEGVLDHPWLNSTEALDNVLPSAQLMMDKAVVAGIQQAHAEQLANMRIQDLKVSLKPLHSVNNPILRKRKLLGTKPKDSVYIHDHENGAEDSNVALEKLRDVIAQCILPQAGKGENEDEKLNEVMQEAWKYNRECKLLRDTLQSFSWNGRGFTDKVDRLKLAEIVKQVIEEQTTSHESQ
In series [17] the target is Calcium/calmodulin-dependent protein kinase type 1D (Homo sapiens, UniProt Q8IU85). Put plainly: CaMK1delta(CA1DLGT5) Takeda global kinase panel.
Chain of Calcium/calmodulin-dependent protein kinase type 1D (Q8IU85 whole entry): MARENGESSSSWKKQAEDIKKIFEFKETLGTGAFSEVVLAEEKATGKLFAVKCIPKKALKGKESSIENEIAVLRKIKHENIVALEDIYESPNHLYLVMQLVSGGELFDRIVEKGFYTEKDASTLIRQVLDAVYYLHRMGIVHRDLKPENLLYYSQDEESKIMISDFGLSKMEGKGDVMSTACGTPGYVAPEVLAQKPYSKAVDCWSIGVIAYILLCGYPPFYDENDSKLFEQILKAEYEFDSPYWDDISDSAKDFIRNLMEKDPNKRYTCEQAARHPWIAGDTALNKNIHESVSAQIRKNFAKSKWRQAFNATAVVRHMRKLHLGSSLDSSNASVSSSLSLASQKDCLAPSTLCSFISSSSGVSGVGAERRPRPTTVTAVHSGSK
The target in series [18] is Dual specificity testis-specific protein kinase 1 (Homo sapiens, UniProt Q15569). Put plainly: TESK1(TES1LGRA) Takeda global kinase panel.
Chain of Dual specificity testis-specific protein kinase 1 (Q15569 whole entry): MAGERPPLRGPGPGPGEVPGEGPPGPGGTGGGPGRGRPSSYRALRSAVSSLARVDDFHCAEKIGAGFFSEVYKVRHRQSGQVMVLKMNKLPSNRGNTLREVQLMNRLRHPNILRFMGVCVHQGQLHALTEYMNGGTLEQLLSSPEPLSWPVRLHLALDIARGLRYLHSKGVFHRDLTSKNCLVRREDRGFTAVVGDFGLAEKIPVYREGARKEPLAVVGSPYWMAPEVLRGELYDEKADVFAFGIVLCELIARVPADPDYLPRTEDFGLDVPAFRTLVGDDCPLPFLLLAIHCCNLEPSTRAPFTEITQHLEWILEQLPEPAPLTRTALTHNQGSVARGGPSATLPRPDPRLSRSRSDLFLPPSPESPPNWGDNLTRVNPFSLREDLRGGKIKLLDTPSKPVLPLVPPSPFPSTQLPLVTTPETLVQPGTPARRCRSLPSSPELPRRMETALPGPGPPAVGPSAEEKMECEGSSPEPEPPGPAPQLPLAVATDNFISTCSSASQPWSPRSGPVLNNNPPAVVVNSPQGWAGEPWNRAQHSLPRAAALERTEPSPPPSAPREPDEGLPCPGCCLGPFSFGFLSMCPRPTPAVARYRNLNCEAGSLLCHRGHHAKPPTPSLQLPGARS
For series [19], the target named is Tyrosine-protein kinase JAK2 (Homo sapiens, UniProt O60674). Put plainly: JAK2(JAK2LGF1) Takeda global kinase panel.
For series [20], the target named is MAP kinase-activated protein kinase 2 (Homo sapiens, UniProt P49137). Nature of the series: MAPKAPK2(MPK2LGRH) Takeda global kinase panel.
Chain of MAP kinase-activated protein kinase 2 (P49137 whole entry): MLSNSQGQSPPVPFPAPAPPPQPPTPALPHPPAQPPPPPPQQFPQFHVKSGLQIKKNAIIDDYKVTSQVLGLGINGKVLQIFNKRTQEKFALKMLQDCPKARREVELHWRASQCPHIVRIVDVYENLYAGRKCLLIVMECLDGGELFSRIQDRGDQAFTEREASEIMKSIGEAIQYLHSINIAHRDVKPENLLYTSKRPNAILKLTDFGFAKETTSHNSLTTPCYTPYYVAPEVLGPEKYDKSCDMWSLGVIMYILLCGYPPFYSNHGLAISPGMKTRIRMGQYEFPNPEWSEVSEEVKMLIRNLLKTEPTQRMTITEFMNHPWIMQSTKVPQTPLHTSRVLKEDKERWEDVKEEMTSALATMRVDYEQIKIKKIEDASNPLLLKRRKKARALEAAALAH
Series [21] deals with Homeodomain-interacting protein kinase 3 (Homo sapiens, UniProt Q9H422). Nature of the series: HIPK3(HIP3LGF1) Takeda global kinase panel.
Chain of Homeodomain-interacting protein kinase 3 (Q9H422 whole entry): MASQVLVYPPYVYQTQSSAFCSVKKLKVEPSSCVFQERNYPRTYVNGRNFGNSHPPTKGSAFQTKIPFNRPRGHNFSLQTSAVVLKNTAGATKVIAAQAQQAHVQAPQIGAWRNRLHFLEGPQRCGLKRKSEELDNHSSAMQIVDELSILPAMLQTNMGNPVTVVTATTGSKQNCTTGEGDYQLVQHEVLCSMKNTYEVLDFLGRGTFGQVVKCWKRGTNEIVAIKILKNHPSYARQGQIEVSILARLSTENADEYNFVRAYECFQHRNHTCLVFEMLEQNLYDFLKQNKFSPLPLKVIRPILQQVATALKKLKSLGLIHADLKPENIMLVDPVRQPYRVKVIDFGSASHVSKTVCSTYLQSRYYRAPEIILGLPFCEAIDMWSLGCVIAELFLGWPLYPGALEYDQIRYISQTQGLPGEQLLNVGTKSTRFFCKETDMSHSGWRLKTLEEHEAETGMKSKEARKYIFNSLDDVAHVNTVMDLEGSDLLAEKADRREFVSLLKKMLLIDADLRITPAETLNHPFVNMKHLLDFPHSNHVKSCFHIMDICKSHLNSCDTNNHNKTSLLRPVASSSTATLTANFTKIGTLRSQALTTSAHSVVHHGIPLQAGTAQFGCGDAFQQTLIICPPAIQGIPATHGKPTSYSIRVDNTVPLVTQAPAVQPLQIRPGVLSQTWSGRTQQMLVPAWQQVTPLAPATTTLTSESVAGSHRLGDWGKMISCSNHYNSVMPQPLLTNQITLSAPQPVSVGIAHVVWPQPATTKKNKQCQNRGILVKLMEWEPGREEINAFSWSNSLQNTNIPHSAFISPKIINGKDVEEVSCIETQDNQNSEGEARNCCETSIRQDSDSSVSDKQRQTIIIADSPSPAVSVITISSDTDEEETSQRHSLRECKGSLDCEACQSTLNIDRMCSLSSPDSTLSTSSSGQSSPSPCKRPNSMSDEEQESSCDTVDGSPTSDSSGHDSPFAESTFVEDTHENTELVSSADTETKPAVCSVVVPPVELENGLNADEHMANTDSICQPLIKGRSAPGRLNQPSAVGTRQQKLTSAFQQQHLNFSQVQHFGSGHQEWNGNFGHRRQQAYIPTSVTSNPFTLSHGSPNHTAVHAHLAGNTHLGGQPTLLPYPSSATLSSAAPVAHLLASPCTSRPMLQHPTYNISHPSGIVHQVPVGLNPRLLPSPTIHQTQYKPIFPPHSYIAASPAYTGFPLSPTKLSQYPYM
The target of series [22] is Dual specificity mitogen-activated protein kinase kinase 7 (Homo sapiens, UniProt O14733). Put plainly: MAP2K7(M2K7CGRI) Takeda global kinase panel.
Chain of Dual specificity mitogen-activated protein kinase kinase 7 (O14733 whole entry): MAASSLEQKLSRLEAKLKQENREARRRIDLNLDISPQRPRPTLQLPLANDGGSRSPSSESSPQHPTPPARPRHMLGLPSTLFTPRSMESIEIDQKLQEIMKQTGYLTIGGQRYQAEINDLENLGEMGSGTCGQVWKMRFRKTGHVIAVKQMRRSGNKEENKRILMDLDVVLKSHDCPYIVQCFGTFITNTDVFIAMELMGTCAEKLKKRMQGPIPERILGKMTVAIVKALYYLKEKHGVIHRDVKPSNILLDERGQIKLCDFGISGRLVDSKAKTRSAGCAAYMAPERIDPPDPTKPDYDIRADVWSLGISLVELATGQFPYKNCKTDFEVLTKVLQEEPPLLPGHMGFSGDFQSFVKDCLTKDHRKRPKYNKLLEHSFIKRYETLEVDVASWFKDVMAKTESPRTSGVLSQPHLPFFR
Series [23] deals with Hepatocyte growth factor receptor (Homo sapiens, UniProt P08581). Put plainly: Met([…]) Takeda global kinase panel.
Series [24] concerns the target Ribosomal protein S6 kinase alpha-3 (Homo sapiens, UniProt P51812). Put plainly: RSK2(R6A3CGE1) Takeda global kinase panel.
Series [25] deals with Mitogen-activated protein kinase 7 (Homo sapiens, UniProt Q13164). Nature of the series: ERK5(MAP7LGF1) Takeda global kinase panel.
Series [26] addresses Tyrosine-protein kinase Yes (Homo sapiens, UniProt P07947). Nature of the series: Yes(YES1LGF1) Takeda global kinase panel.
Series [27] concerns the target L-type calcium channel, benzothiazepine site (Cav1.2 alpha-1C) (Homo sapiens, UniProt Q13936). Nature of the series: Inhibition of Calcium Channel L-Type, Benzothiazepine at 10 µM in the Eurofins-Panlabs radioligand binding assay (Eurofins_assay_214510). Further details: ligand concentration 2 nM, non-specific ligand with concentration 10 µM Diltiazem, incubation time 3h, incubation temperature 4 °C. Particulars: male, Wistar, rat, whole brain of rats, probe [3H] Diltiazem; compound concentration 10 uM; target entry is the homologue from another species.

In series [28] the target is Dual specificity mitogen-activated protein kinase kinase 2 (Homo sapiens, UniProt P36507). Nature of the series: MEK2 [MAP2K2(M2K2LGF1)] Takeda global kinase panel.
The target of series [29] is Proto-oncogene tyrosine-protein kinase Src (Homo sapiens, UniProt P12931). Nature of the series: Src(SRC1LGF5) Takeda global kinase panel.
Chain of Proto-oncogene tyrosine-protein kinase Src (P12931 2-536 limits assumed): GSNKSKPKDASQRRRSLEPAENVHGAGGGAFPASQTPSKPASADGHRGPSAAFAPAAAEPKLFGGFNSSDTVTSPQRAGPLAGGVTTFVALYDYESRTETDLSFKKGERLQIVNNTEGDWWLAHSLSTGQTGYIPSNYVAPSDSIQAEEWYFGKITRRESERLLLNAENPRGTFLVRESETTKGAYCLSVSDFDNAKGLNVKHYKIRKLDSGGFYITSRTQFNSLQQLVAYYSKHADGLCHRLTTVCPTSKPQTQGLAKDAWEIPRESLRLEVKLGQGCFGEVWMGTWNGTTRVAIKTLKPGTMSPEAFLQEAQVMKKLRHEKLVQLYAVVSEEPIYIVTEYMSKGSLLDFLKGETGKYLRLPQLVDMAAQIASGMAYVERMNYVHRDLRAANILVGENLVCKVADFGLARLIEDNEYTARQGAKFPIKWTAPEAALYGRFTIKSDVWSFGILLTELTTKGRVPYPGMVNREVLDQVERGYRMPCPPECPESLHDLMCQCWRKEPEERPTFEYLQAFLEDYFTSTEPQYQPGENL

In general, inhibition refers to the relative decrease from the control value, in per cent. Broadly, the IC50 is the concentration that gives 50% inhibition.

Chain of Prostaglandin E2 receptor EP4 subtype (Homo sapiens) (P35408 whole entry): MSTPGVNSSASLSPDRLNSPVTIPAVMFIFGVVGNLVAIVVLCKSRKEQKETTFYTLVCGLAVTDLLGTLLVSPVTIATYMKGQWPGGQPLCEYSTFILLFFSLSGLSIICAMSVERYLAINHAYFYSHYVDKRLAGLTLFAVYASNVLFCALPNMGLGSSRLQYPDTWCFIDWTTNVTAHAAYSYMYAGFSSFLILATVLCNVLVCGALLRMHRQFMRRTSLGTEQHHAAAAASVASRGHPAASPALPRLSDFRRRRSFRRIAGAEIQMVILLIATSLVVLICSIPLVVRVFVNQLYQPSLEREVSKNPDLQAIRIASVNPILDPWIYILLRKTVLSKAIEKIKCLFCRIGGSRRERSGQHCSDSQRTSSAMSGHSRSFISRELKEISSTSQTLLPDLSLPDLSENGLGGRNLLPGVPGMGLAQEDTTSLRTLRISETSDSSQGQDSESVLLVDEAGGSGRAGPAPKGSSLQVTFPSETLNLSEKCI

As to `CN1C(=O)[C@@H](N2CCc3cn(Cc4ccccc4)nc3C2=O)COc2ccccc21` [TP-030-1], the inhibition in [1] was 43.3%; in series [2] it was -2%; in the series listed under Rattus norvegicus, 68.7%; in series [3], 0.6%; in series [4], 12%; in series [5] it was -3.98%. Besides, the inhibition is -3.95% in series [6]; 5.21% in series [7]; 19.1% in series [9]; -1.17% in series [10]; -1.9% in series [11]; -4.37% in [12]. In series [13], the inhibition is 6.09%. For the same compound, the IC50 in series [8] and in series [14] was 1000 nM throughout.

With `CN1C(=O)[C@@H](N2CCc3cn(CC4CCS(=O)(=O)CC4)nc3C2=O)COc2ccccc21` [TP-030n], the IC50 in series [15], in [16], in series [17], in series [18], in series [19] and in series [20] was 1000 nM in each case. In addition, the IC50 in [21], in series [22], in series [23], in series [24], in series [25] and in [26] was 1000 nM throughout. Also, the IC50 in series [28] and in series [29] was 1000 nM throughout. In addition, the inhibition at 3 h, 10 µM in [27] is on record as 2% (not active).
